Reference: the supplement of paper PMC10883282
Where a name gives a salt, the structure may show the parent alone. ± gives the standard deviation of the averaged measurements.

System: SW1353
Experiment: relative viability vs DMSO control (72 h) (fraction); higher = more viable cells
Summary of the method: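 Relative viability was measured with ATPLite and expressed as percent growth, averaged across up to triplicate wells. Sarcoma cell lines had been seeded in 384-well plates to reach 80–90% confluence, dosed after 24 h, and incubated 72 h at 37 °C, 5% CO2. All data were rescaled on a scale where 1 is full and 0 is none.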

Row | Structure (SMILES) | relative viability (0.00017 µM) | relative viability (0.00051 µM) | relative viability (0.00152 µM) | relative viability (0.00457 µM) | relative viability (0.01372 µM) | relative viability (0.04115 µM) | relative viability (0.1235 µM) | relative viability (0.3704 µM) | relative viability (1.111 µM) | relative viability (3.333 µM) | relative viability (10 µM)
1 | CC(C)(C)c1cc(NC(=O)Nc2ccc(-c3cn4c(n3)sc3cc(OCCN5CCOCC5)ccc34)cc2)no1 [Quizartinib] | 1.02 ± 0.03 | 1.02 ± 0.047 | 1.02 ± 0.057 | 1.03 ± 0.047 | 1.01 ± 0.059 | 1.03 ± 0.043 | 1.02 ± 0.046 | 1.01 ± 0.031 | 0.965 ± 0.044 | 0.874 ± 0.02 | 0.981 ± 0.035
2 | CNC(=O)c1ccc(-c2cnc3ncc(Cc4ccc5ncccc5c4)n3n2)cc1F [Capmatinib] | 0.958 ± 0.038 | 0.979 ± 0.033 | 0.973 ± 0.029 | 0.986 ± 0.063 | 0.974 ± 0.019 | 0.964 ± 0.049 | 1.01 ± 0.036 | 0.98 ± 0.044 | 1.05 ± 0.025 | 1.07 ± 0.011 | 1.03 ± 0.018
3 | CC(C)N1CCN(Cc2cnc(-c3cc(-c4cccc5[nH]ccc45)cc4[nH]ncc34)o2)CC1 [Nemiralisib] | 1.07 ± 0.033 | 0.997 ± 0.044 | 0.992 ± 0.023 | 0.99 ± 0.032 | 0.983 ± 0.02 | 0.965 ± 0.043 | 0.948 ± 0.04 | 0.914 ± 0.025 | 0.85 ± 0.053 | 0.721 ± 0.044 | 0.59 ± 0.067
4 | C[C@@H](c1ccc2nccn2c1)n1nnc2ncc(-c3cnn(C)c3)nc21 [Volitinib] | 1.01 ± 0.033 | 1.01 ± 0.011 | 0.998 ± 0.028 | 1.02 ± 0.019 | 1.02 ± 0.044 | 1 ± 0.048 | 1.01 ± 0.045 | 0.976 ± 0.026 | 1.03 ± 0.016 | 0.987 ± 0.035 | 1.02 ± 0.023
5 | COc1c(OCCCN2CCOCC2)ccc2c1N=C(NC(=O)c1cnc(N)nc1)N1CCN=C21 [Copanlisib] | 1.08 ± 0.053 | 1.05 ± 0.054 | 1.01 ± 0.025 | 0.917 ± 0.011 | 0.845 ± 0.033 | 0.743 ± 0.047 | 0.635 ± 0.045 | 0.518 ± 0.011 | 0.441 ± 0.015 | 0.412 ± 0.03 | 0.364 ± 0.017
6 | CCN1CCN(Cc2ccc(Nc3ncc(F)c(-c4cc(F)c5nc(C)n(C(C)C)c5c4)n3)nc2)CC1 [Abemaciclib] | 0.958 ± 0.031 | 0.974 ± 0.017 | 0.976 ± 0.021 | 0.944 ± 0.011 | 0.9333 ± 0.0082 | 0.884 ± 0.033 | 0.778 ± 0.023 | 0.74 ± 0.021 | 0.699 ± 0.024 | 0.73 ± 0.046 | 0.721 ± 0.047
7 | C[C@]1(O)C[C@@H](c2nc(-c3ccc4ccc(-c5ccccc5)nc4c3)c3c(N)nccn32)C1 [Linsitinib] | 1.03 ± 0.017 | 1 ± 0.024 | 1.03 ± 0.03 | 0.977 ± 0.024 | 1.03 ± 0.017 | 1.01 ± 0.014 | 0.978 ± 0.041 | 0.967 ± 0.029 | 0.9847 ± 0.0087 | 0.949 ± 0.05 | 0.866 ± 0.024
8 | Cc1ccc(NC(=O)c2ccc(CN3CCN(C)CC3)cc2)cc1Nc1nc(-c2cccnc2)cs1 [Masitinib] | 1.03 ± 0.017 | 0.998 ± 0.012 | 0.986 ± 0.023 | 0.9886 ± 0.0079 | 0.989 ± 0.014 | 1.018 ± 0.0045 | 0.925 ± 0.006 | 0.86 ± 0.049 | 0.755 ± 0.047 | 0.478 ± 0.026 | 0.032 ± 0.0052
9 | CN1CCN(c2ccc3nc(-c4c(N)c5c(F)cccc5[nH]c4=O)[nH]c3c2)CC1 [Dovitinib] | 1.08 ± 0.036 | 1.09 ± 0.015 | 1.04 ± 0.04 | 1.07 ± 0.019 | 1.06 ± 0.014 | 1.01 ± 0.03 | 1.01 ± 0.048 | 0.959 ± 0.036 | 0.749 ± 0.017 | 0.53 ± 0.043 | 0.06 ± 0.0053
10 | CC(=O)Nc1cccc(-n2c(=O)n(C3CC3)c(=O)c3c(Nc4ccc(I)cc4F)n(C)c(=O)c(C)c32)c1 [Trametinib] | 1.02 ± 0.025 | 1.01 ± 0.034 | 0.942 ± 0.024 | 0.862 ± 0.014 | 0.745 ± 0.014 | 0.69 ± 0.031 | 0.642 ± 0.029 | 0.613 ± 0.012 | 0.571 ± 0.025 | 0.5524 ± 0.0038 | 0.509 ± 0.019
11 | C=CC(=O)N1CCC[C@@H](n2nc(-c3ccc(Oc4ccccc4)cc3)c3c(N)ncnc32)C1 [Ibrutinib] | 1.03 ± 0.041 | 1.04 ± 0.028 | 1 ± 0.032 | 1.013 ± 0.0014 | 0.947 ± 0.03 | 0.945 ± 0.011 | 0.854 ± 0.05 | 0.821 ± 0.012 | 0.746 ± 0.043 | 0.647 ± 0.014 | 0.412 ± 0.021
12 | COc1cc2/c(=N/c3ccc(Br)cc3F)nc[nH]c2cc1OCC1CCN(C)CC1 [Vandetanib] | 0.952 ± 0.029 | 0.962 ± 0.017 | 0.941 ± 0.04 | 0.988 ± 0.018 | 0.976 ± 0.029 | 0.952 ± 0.032 | 0.957 ± 0.045 | 0.9245 ± 0.0051 | 0.92 ± 0.013 | 0.558 ± 0.019 | 0.0143 ± 0.0022
13 | C[C@@H]1COCCN1c1cc(-c2ccnn2C)c2ccnc(-c3ccn[nH]3)c2n1 | 0.988 ± 0.026 | 0.94 ± 0.015 | 0.974 ± 0.035 | 0.978 ± 0.065 | 0.933 ± 0.059 | 0.872 ± 0.028 | 0.769 ± 0.026 | 0.624 ± 0.027 | 0.507 ± 0.0081 | 0.41 ± 0.005 | 0.392 ± 0.014
14 | COc1cccc2c1C(=O)c1c(O)c3c(c(O)c1C2=O)C[C@@](O)(C(=O)CO)C[C@@H]3O[C@H]1C[C@H](N)[C@H](O)[C@H](C)O1 [Doxorubicin Hydrochloride] | 0.948 ± 0.043 | 0.971 ± 0.029 | 0.958 ± 0.022 | 0.949 ± 0.013 | 0.882 ± 0.043 | 0.81 ± 0.013 | 0.661 ± 0.029 | 0.376 ± 0.017 | 0.162 ± 0.0035 | 0.181 ± 0.011 | 0.115 ± 0.0047
15 | O=C(Nc1cnn2ccc(N3CCC[C@@H]3c3cc(F)ccc3F)nc12)N1CC[C@H](O)C1 [Larotrectinib] | 1.07 ± 0.043 | 1.07 ± 0.027 | 1 ± 0.033 | 1.01 ± 0.057 | 1.03 ± 0.034 | 0.954 ± 0.026 | 0.99 ± 0.025 | 0.9488 ± 0.0041 | 0.984 ± 0.053 | 0.979 ± 0.025 | 0.921 ± 0.047
16 | Cc1cc(C)c(/C=C2\C(=O)Nc3ccccc32)[nH]1 [Semaxanib] | 0.919 ± 0.019 | 0.8637 ± 0.004 | 0.898 ± 0.032 | 0.897 ± 0.043 | 0.865 ± 0.022 | 0.895 ± 0.052 | 0.892 ± 0.016 | 0.886 ± 0.017 | 0.872 ± 0.04 | 0.818 ± 0.022 | 0.788 ± 0.032
17 | CC1(C)CNc2cc(NC(=O)c3cccnc3NCc3ccncc3)ccc21 [Motesanib] | 0.993 ± 0.037 | 1.01 ± 0.013 | 1.02 ± 0.011 | 1 ± 0.018 | 0.997 ± 0.03 | 1.01 ± 0.012 | 0.963 ± 0.031 | 0.964 ± 0.016 | 0.977 ± 0.025 | 0.935 ± 0.023 | 0.898 ± 0.025
18 | Cc1nc(-c2cn3c(n2)-c2ccc(-c4cnn(C(C)(C)C(N)=O)c4)cc2OCC3)n(C(C)C)n1 [Taselisib] | 0.925 ± 0.035 | 0.933 ± 0.02 | 0.953 ± 0.025 | 0.971 ± 0.013 | 0.884 ± 0.043 | 0.856 ± 0.031 | 0.785 ± 0.03 | 0.762 ± 0.014 | 0.69 ± 0.021 | 0.599 ± 0.021 | 0.469 ± 0.0077
19 | CC(C)NC(=O)C1CCC(n2c(NC(=O)c3ccc(F)cc3)nc3ccc(CN4CCC(C(C)(C)O)CC4)cc32)CC1 (centres undefined) [Belizatinib] | 1.02 ± 0.03 | 0.987 ± 0.045 | 1.02 ± 0.014 | 1.05 ± 0.062 | 1.03 ± 0.015 | 1.03 ± 0.03 | 0.944 ± 0.012 | 0.929 ± 0.022 | 0.808 ± 0.03 | 0.648 ± 0.021 | 0.441 ± 0.024
